The text below walks through data of patent publication US9988603B2, “Large scale generation of functional megakaryocytes and platelets from human embryonic stem cells under stromal-free conditions” (Stem Cell & Regenerative Medicine International, priority 2009, dated 2018).

Common to all, as to assay type: cell-based, human
Experiment [1] concerns platelet integrin receptor. In words: Platelet spreading on immobilized fibrinogen and vWF. To be noted: control plasma platelets and ES-PLTs on fibrinogen, stimulated with agonist. The protocol: Chamber slides with microtiter wells (Nalgen Nunc, Rochester, N.Y.) were coated with […] fibrinogen (Sigma) in 0.1M NaHCO3 (pH 8.3) at 4° C. overnight. Washed human peripheral platelets or hESC-platelets (1×10^7/mL) were allowed to adhere and spread on fibrinogen-coated wells at 37° C. for 90 minutes. In some samples, platelets were preincubated with an integrin antagonist, RGDS peptide, for 5 minutes before loading. In other samples, platelets were mixed with ADP (10 μM) or thrombin (1 U/ml) (Sigma-Aldrich, St Louis, Mo.), and immediately loaded on to fibrinogen-coated wells. […] Adherent platelets were viewed with an Olympus BX51 fluorescence microscope (MVI, Avon, Mass.) using a PlanApo lens at 100×/1.40 oil objective. […]
Integrin outside-in signaling functional property in ES-PLTs was further assessed by spreading assay on immobilized fibrinogen on glass slides. […]
Chamber slides with microtiter wells (Nalgen Nunc, Rochester, N.Y.) were coated with 100 μg/mL fibrinogen or vWF ([…]) (Sigma-Aldrich, St Louis, Mo.) in 0.1M NaHCO3 (pH 8.3) at 4° C. overnight. […] Adherent platelets were viewed with an Olympus BX51 fluorescence microscope using a PlanApo lens at 100×/1.40 oil objective. […]

Another experiment has as its system hESC-PLTs. In words: CD41a/CD42b expression on hESC-PLTs generated under feeder-free conditions (FACS). The conditions noted are these: GM6001 100 μM during late stage of differentiation. On the procedure:
To examine whether functional platelets were generated under feeder-free conditions, the inventors examined CD41a/CD42b expression on hESC-derived platelets (hESC-PLTs) by FACS analyses. […] However, less than 5% of these hESC-PLTs were CD42b positive. […] Supplement of GM6001 (100 μM) during late stage of human ESC-PLTs differentiation increased CD41a and CD42b double positive hESC-PLTs to about 15%. The function of feeder-free generated hESC-PLTs was assessed by integrin dependent spreading assay on immobilized fibrinogen and vWF. Anti-human CD41a antibody and DAPI staining were used to identify platelets.
Hemangioblast/BC generation from hESC lines (HuES-3, H7 [WA07], MA01, and MA09) was performed as previously reported^17:20. BCs from day 6 to 8 cultures were purified and plated (1 to 5×10^5/ml) in Stemline II media supplemented with 50 ng/ml TPO, 20 ng/ml SCF and 20 ng/ml IL-11 (Peprotech) to induce BC differentiation toward MKs. Half of the MK culture media was replaced with fresh media every 2 or 3 days. […]
Cells from blast cultures or MK cultures are monitored routinely by flow cytometry analyses on FACSCalibur (Becton Dickinson) or Accuri C6 Cytometer (Accuri Cytometers). […] The samples were then analyzed with FACSCalibur, and data analyzed using Cellquest or Flowjo software. […] Cellular DNA content was analyzed on an Accuri C6 cytometer.

Experiment [2] deals with CD41a+ megakaryocytes from hESC derived BCs. As to the kind of experiment: Megakaryocyte (MK) differentiation/expansion culture from hESC derived blast cells, CD41a+ cell count. To be noted: for yields / expansion of CD41a+ megakaryocytes: serum-free Stemline II MK culture of day 6 to 8 BCs, factors compared to TPO and SCF only, 4 day liquid culture. The protocol: BCs from day 6 to 8 blast cultures were purified and plated (1 to 5×10^5/ml) in Stemline II media supplemented with 50 ng/ml TPO, 20 ng/ml SCF and other cytokines to induce BC differentiation toward MKs. Half of the MK culture media was replaced with fresh media every 2 or 3 days.
In order to further direct the differentiation of megakaryocytes, day 6 to day 8 BCs from methylcellulose semi-solid cultures were harvested and then resuspended in serum-free media, i.e., Stemline II supplemented with cytokines for MK culture. The cell count of CD41a+ cells was used as readout to determine the expansion megakaryocytes during the suspension culture, which was calculated by multiplying the percentage of CD41a+(FACS) and total live cell count (Trypan blue exclusion). […] A panel of cytokines and factors were also tested in order to achieve high purity and the total yield of megakaryocytes from BCs. These factors including IL9 and BMP4 were previously reported as megakaryocyte promoting factors in other systems^21:22.
Certain factors, however, did slightly increase the percentage of CD41+ cells (not shown).

Experiment [3] concerns hESC derived blast cells (BCs). In words: Blast culture, percentage of CD41a+ cells by FACS. The conditions noted are these: for percentage of CD41a+ cells at the end of blast culture: TPO 100 ng/ml and SCF 50 ng/ml together, second phase of EB formation and blast colony growth. On the procedure:
The procedure for EB formation and BC generation were performed as previously reported^17:19. In brief, hESCs at 70% confluency were dissociated by 0.05% trypsin and plated in Ultra-Low dishes (Corning, N.Y.) with Stemline II (Sigma) medium supplemented with BMP-4, VEGF (50 ng/ml). Half of the medium was replaced after 48 hours with fresh medium containing the same cytokines plus bFGF 20 ng/ml, SCF, Flt3 ligand (FL) and Tpo (50 ng/ml each, R&D System). On day 4, EBs were collected and dissociated by 0.05% trypsin. Single-cell suspensions were obtained by passing the cells through 22-gauge needle and through a 40 μm cell strainer, collected by centrifugation, and resuspended in Stemline II media. Live cells were counted by trypan blue exclusion, and 1 to 2×10^5/ml were mixed with blast colony growth medium (BGM) as previously described, and plated in Ultra-Low dishes. Blast colonies were observed 3-4 days after plating, followed by rapid expansion.
Cells from blast cultures or megakaryocyte cultures are monitored routinely by flow cytometry analyses on FACS Caliber. Fluorochrome conjugated antibodies for lineage markers, CD41a, CD42a, CD42b and CD235a (BD Biosciences) were used to characterize the megakaryocyte and erythroid lineages. Antibodies were freshly prepared (1:100 dilution for CD42a and CD42b antibodies; 1:250 dilution for CD41a antibody; 1:2000 for CD235a antibody) in PBS with 5% new born calf serum. Typically 1 to 2×10^5 cells were used for antibody labeling. Cells were stained in 100 μl antibody cocktail for 1 hour on ice, then washed twice with buffer, and resuspended in 250 μl buffer supplemented with 1 μg/ml propidium iodide. To detect the expression level of HLA-ABC, platelets were incubated with a fluorescein isothiocyanate (FITC)-conjugated antihuman HLA-ABC antibody or FITC-conjugated mouse immunoglobulin G (IgG) as a control. The samples were then analyzed using a flow cytometer (FACSCalibur, Becton Dickinson), and data were analyzed using Cellquest or Flowjo software. Cell sorting was performed on BD FACS Aria system at UMASS Medical School Core Facility. […]

`Nc1ncnc2c1ncn2[C@@H]1O[C@H](COP(=O)(O)OP(=O)(O)O)[C@@H](O)[C@H]1O` [ADP]: the “lamellipodia and actin stress fiber formation” value in experiment [1] is on record as “enhanced”.
For `CNC(=O)[C@H](Cc1c[nH]c2ccccc12)NC(=O)[C@@H](CC(=O)NO)CC(C)C` [GM6001], the “CD41a and CD42b double positive hESC-PLTs” value in the experiment with hESC-PLTs is given as “about 15%”.
Turning to `C[C@@H](N)[C@H]1CC[C@H](C(=O)Nc2ccncc2)CC1` [Y27632], in experiment [2] (10 μM during 4 day MK culture), the “CD41+ cell count at the end of 4 day culture” value is “reduced” and the “percentage of polyploid cells” value was “dramatically increased”.
Consider “IL9: previously reported megakaryocyte promoting factor”, for which, in experiment [2], the “yields / expansion of CD41a+ megakaryocytes” value (“yields / expansion” for short) is listed as “did not show obvious effects”.
Consider IL 6: cytokine tested in MK culture, for which the “yields / expansion” value in experiment [2] is “slightly increased”.
Take SCF: cytokine in MK culture media: in experiment [2], the “yields / expansion” value is reported as “significantly increased”. Moreover, the “percentage of CD41a+ cells at the end of blast culture” value in experiment [3] is given as “increased”.
In the case of TPO: cytokine in MK culture media, the “yields / expansion” value in experiment [2] is “not sufficient”. Also, in experiment [3], the “percentage of CD41a+ cells at the end of blast culture” value is recorded as “increased”.
Turning to VEGF, in experiment [2], the “yields / expansion” value is “slightly increased”.
Take “bFGF: growth factor tested in MK culture”: in experiment [2], the “yields / expansion” value is listed as “slightly increased”.
Turning to thrombin, the “lamellipodia and actin stress fiber formation” value in experiment [1] is recorded as “enhanced”.

B1: IL11: cytokine reported to enhance expansion and maturation of megakaryocytes (protein, UniProt P20809 22-199, looked up)
Interleukin-11: PGPPPGPPRVSPDPRAELDSTVLLTRSLLADTRQLAAQLRDKFPADGDHNLDSLPTLAMSAGALGALQLPGVLTRLRADLLSYLRHVQWLRRAGGSSLKTLEPELGTLQARLDRLLRRLQLLMSRLALPQPPPDPPAPPLAPPSSAWGGIRAAHAILGGLHLTLDWAVRGLLLLKTRL
B1: the “yields / expansion” value in experiment [2] is listed as “slightly increased”. Moreover, in experiment [3] (IL-11 20 ng/ml in BGM medium), the “ratio of CD41a+ cells in day 6 to 8 blast cultures” value is “further increased”.

B2: BMP4: previously reported megakaryocyte promoting factor (protein, UniProt P12644 293-408, looked up)
Bone morphogenetic protein 4: SPKHHSQRARKKNKNCRRHSLYVDFSDVGWNDWIVAPPGYQAFYCHGDCPFPLADHLNSTNHAIVQTLVNSVNSSIPKACCVPTELSAISMLYLDEYDKVVLKNYQEMVVEGCGCR
For B2, the “yields / expansion” value in experiment [2] is listed as “did not show obvious effects”.
